Test system: Male beagle dogs
Experiment: canine telemetry protocol, blood pressure reduction efficacy
Type: in vivo
Details: change from baseline, 3 mg/kg oral gavage; for ΔPP (mm Hg) 1-6 h / ΔPP (mm Hg) 6-12 h / ΔPP (mm Hg) 12-18 h: pulse pressure; for ΔSBP (mm Hg) 1-6 h / ΔSBP (mm Hg) 6-12 h / ΔSBP (mm Hg) 12-18 h: systolic blood pressure
Protocol: Compounds of the invention were evaluated for blood pressure reduction efficacy using the following canine telemetry protocol described below.
Male beagle dogs (approximately 1-3 years old) with a body weight of between 10 and 16 kg were surgically implanted with DSI radiotelemetry devices (model: TL11M2-D70-PCT). Briefly, under an inhalant anesthesia, isoflurane/oxygen mixture (1-3.5%/to effect), the body of the telemetry device was positioned and secured intra-abdominally. Subsequently, the arterial catheter of the telemetry device was passed subcutaneously to the inguinal area and introduced into the femoral artery and advanced to the level of the descending aorta. The catheter was secured with 2-0 silk ligatures. The muscle and underlying fascia was closed over the catheter using absorbable suture and the skin was closed using non-absorbable suture. The animals were allowed a minimum recovery period of 2 weeks between surgery and the evaluation of test compounds.
Compound evaluation consisted of a 3 day paradigm at a 3 mg/kg dose. On the first day, no compounds were administered during a 24 hour period of baseline data collection. Blood pressure and heart rate data were collected continuously for one minute periods at 10 minute intervals. On the days of compound administration half the animals received test article with the other half receiving the vehicle used for compound formulation. All test materials were administered by oral gavage in a volume of 1 mL/kg. Data are expressed either as raw values (mm Hg or beats per minute) or as the change from baseline (average value for about 12 hours in low activity period prior to dosing). Change is SBP (systolic blood pressure) and PP (pulse pressure) over time is shown below: […]

| Compound | ΔPP (mm Hg) 1-6 h | ΔPP (mm Hg) 6-12 h | ΔPP (mm Hg) 12-18 h | ΔSBP (mm Hg) 1-6 h | ΔSBP (mm Hg) 6-12 h | ΔSBP (mm Hg) 12-18 h |
| --- | --- | --- | --- | --- | --- | --- |
| CCN(/[N+]([O-])=N/O[C@H]1CC[C@@H](C(=O)O)CC1)C(C)(C)C [Example 1, Cis-4-({[(1Z)-2-tert-butyl-2-ethyl-1-oxido-1λ^5-diazan-1-ylidene]amino}oxy)-cyclohexanecarboxylic acid] | −1 mm Hg | −6 mm Hg | −1 mm Hg | −9 mm Hg | −5 mm Hg | −1 mm Hg |
| CCN(/[N+]([O-])=N/O[C@H]1CC[C@H](C(=O)O)CC1)C(C)(C)C [Example 2, Trans-4-({[(1Z)-2-tert-butyl-2-ethyl-1-oxido-1λ^5-diazan-1-ylidene]amino}oxy)-cyclohexanecarboxylic acid] | −9 mm Hg | −9 mm Hg | −7 mm Hg | −14 mm Hg | −10 mm Hg | −9 mm Hg |
| CN(/[N+]([O-])=N/O[C@H]1CC[C@@H](C(=O)O)CC1)C(C)(C)C [Example 3, Cis-4-({[(1Z)-2-tert-butyl-2-methyl-1-oxido-1λ^5-diazan-1-ylidene]amino}oxy)-cyclohexanecarboxylic acid] | −7 mm Hg | −8 mm Hg | −5 mm Hg | −8 mm Hg | −10 mm Hg | −5 mm Hg |
| CN(/[N+]([O-])=N/O[C@H]1CC[C@H](C(=O)O)CC1)C(C)(C)C [Example 6, Trans-4-({[(1Z)-2-tert-butyl-2-methyl-1-oxido-1λ^5-diazan-1-ylidene]amino}oxy)-cyclohexanecarboxylic acid] | −12 mm Hg | −4 mm Hg | −2 mm Hg | −18 mm Hg | −4 mm Hg | −2 mm Hg |
| CCCCN(/[N+]([O-])=N/O[C@H]1CC[C@H](C(=O)O)CC1)C(C)(C)C [Example 8, Trans-4-({[(1Z)-2-butyl-2-tert-butyl-1-oxido-1λ^5-diazan-1-ylidene]amino}oxy)-cyclohexanecarboxylic acid] | −11 mm Hg | −15 mm Hg | −12 mm Hg | −14 mm Hg | −14 mm Hg | −8 mm Hg |

— patent US8623846B2, “Diazeniumdiolate cyclohexyl derivatives” (Merck Sharp & Dohme Corp., priority 2010, dated 2014)
